Data set [1] has as its system Candida albicans. The experiment in a line: Antifungal activity against fluconazole-resistant Candida albicans clinical isolate 904 assessed as inhibition of fungal growth by CLSI M27-A3 guidelines based method. The class given is functional.
The next data set concerns Pichia kudriavzevii. The data set can be described thus: Antifungal activity against Candida krusei GIM 2.1 assessed as inhibition of fungal growth by CLSI M27-A3 guidelines based method. The class given is functional.
Data set [2] has as its system Candida albicans. The experiment in a line: Antifungal activity against fluconazole-resistant Candida albicans clinical isolate 311 assessed as inhibition of fungal growth by CLSI M27-A3 guidelines based method. The class given is functional.
Data set [3] has as its system Candida albicans. The experiment in a line: Antifungal activity against fluconazole-resistant Candida albicans clinical isolate 632 assessed as inhibition of fungal growth by CLSI M27-A3 guidelines based method. The class given is functional.
Data set [4] relates to Candida albicans. The data set can be described thus: Antifungal activity against fluconazole-resistant Candida albicans clinical isolate 901 assessed as inhibition of fungal growth by CLSI M27-A3 guidelines based method. The class given is functional.
In a further data set the test system is Aspergillus fumigatus. The experiment in a line: Antifungal activity against Aspergillus fumigatus cgmcc 3.7795 assessed as inhibition of fungal growth by CLSI M27-A3 guidelines based method. The class given is functional.
Data set [5] relates to Candida albicans. The experiment in a line: Antifungal activity against fluconazole-resistant Candida albicans CaR assessed as inhibition of fungal growth by CLSI M27-A3 guidelines based method. The class given is functional.
Data set [6] relates to Candida albicans. The experiment in a line: Antifungal activity against Candida albicans GIM 2.194 assessed as inhibition of fungal growth by CLSI M27-A3 guidelines based method. The class given is functional.
Another data set has as its system Candida tropicalis. The experiment in a line: Antifungal activity against Candida tropicalis GIM 2.183 assessed as inhibition of fungal growth by CLSI M27-A3 guidelines based method. The class given is functional.
Data set [7] relates to Candida albicans. The data set can be described thus: Antifungal activity against Candida albicans SC5314 assessed as inhibition of fungal growth by CLSI M27-A3 guidelines based method. The class given is functional.
The test system of data set [8] is Candida albicans. The experiment in a line: Antifungal activity against fluconazole-resistant Candida albicans clinical isolate 100 assessed as inhibition of fungal growth by CLSI M27-A3 guidelines based method. The class given is functional.
Data set [9] relates to Candida albicans. The experiment in a line: Antifungal activity against fluconazole-resistant Candida albicans clinical isolate 103 assessed as inhibition of fungal growth by CLSI M27-A3 guidelines based method. The class given is functional.
Data set [10] concerns Candida albicans. The data set can be described thus: Antifungal activity against fluconazole and iodiconazole resistant Candida albicans clinical isolate 17# assessed as inhibition of fungal growth by CLSI M27-A3 guidelines based method. The class given is functional.
The subject of the next data set is Nakaseomyces glabratus. The experiment in a line: Antifungal activity against Candida glabrata assessed as inhibition of fungal growth by CLSI M27-A3 guidelines based method. The class given is functional.
A further data set concerns Cryptococcus neoformans. The data set can be described thus: Antifungal activity against Cryptococcus neoformans CGMCC 2.3161 assessed as inhibition of fungal growth by CLSI M27-A3 guidelines based method. The class given is functional.
Another data set deals with Candida parapsilosis. The data set can be described thus: Antifungal activity against Candida parapsilosis GIM 2.190 assessed as inhibition of fungal growth by CLSI M27-A3 guidelines based method. The class given is functional. The settings on record: Lodderomyces parapsilosis.
Data set [11] in a line: Metabolic stability in human liver microsomes assessed as half-life preincubated for 10 mins followed by NADPH addition and measured after 60 mins by LC-MS/MS analysis. The class given is ADME, Microsome. The settings on record: time 70 min. (Liver microsomes are a subcellular fraction often used to study metabolism.)
Data set [12] in a line: Metabolic stability in human liver microsomes assessed as parent compound remaining preincubated for 10 mins followed by NADPH addition and measured after 60 mins by LC-MS/MS analysis. The class given is ADME, Microsome. As to conditions: time 70 min, read-out: Stability.

Molecules are shown by their SMILES. Converted amounts (≈) assume the structure as drawn.

On to `C[C@@H](N(C)Cc1ccc(C#Cc2cc(F)c(Cl)cc2F)cc1)[C@](O)(Cn1cncn1)c1ccc(F)cc1F`, for which the MIC80 (as a rule, the lowest concentration that inhibits either 80% of growth or 80% of the strains tested, depending on the study) with Candida albicans [1] was 32 µg/mL (≈ 58.9 µM); with Pichia kudriavzevii it was 0.05 µg/mL (≈ 0.0921 µM); in the data set with Candida albicans [2], 32 µg/mL (≈ 58.9 µM); with Candida albicans [3], 4 µg/mL (≈ 7.37 µM); with Candida albicans [4] it was 4 µg/mL (≈ 7.37 µM); in the data set with Aspergillus fumigatus, 0.2 µg/mL (≈ 0.368 µM). Further, the MIC80 in the data set on Candida albicans [5] was 0.5 µg/mL (≈ 0.921 µM); in the data set on Candida albicans [6] it was 0.05 µg/mL (≈ 0.0921 µM); with Candida tropicalis it was 0.006 µg/mL (≈ 0.0111 µM); with Candida albicans [7], 0.013 µg/mL (≈ 0.0239 µM); in the data set with Candida albicans [8], 4 µg/mL (≈ 7.37 µM); with Candida albicans [9] it was 8 µg/mL (≈ 14.7 µM). Besides, the MIC80 turned out to be 0.5 µg/mL (≈ 0.921 µM) in the data set on Candida albicans [10], 0.05 µg/mL (≈ 0.0921 µM) with Nakaseomyces glabratus, 0.013 µg/mL (≈ 0.0239 µM) in the data set with Cryptococcus neoformans and 0.006 µg/mL (≈ 0.0111 µM) in the data set with Candida parapsilosis.
Take `Cc1ccc(C#Cc2ccc(CN(C)[C@H](C)[C@](O)(Cn3cncn3)c3ccc(F)cc3F)cc2)cc1`: the MIC80 in the data set with Candida albicans [1] turned out to be 32 µg/mL (≈ 65.8 µM); in the data set on Pichia kudriavzevii it was 0.03 µg/mL (≈ 0.0617 µM); in the data set on Candida albicans [2] it was 32 µg/mL (≈ 65.8 µM); in the data set on Candida albicans [3] it was 4 µg/mL (≈ 8.22 µM); with Candida albicans [4], 8 µg/mL (≈ 16.4 µM); in the data set with Aspergillus fumigatus, 0.1 µg/mL (≈ 0.206 µM). Moreover, the MIC80 in the data set on Candida albicans [5] was determined as 0.25 µg/mL (≈ 0.514 µM); with Candida albicans [6], 0.013 µg/mL (≈ 0.0267 µM); in the data set on Candida tropicalis it was 0.006 µg/mL (≈ 0.0123 µM); with Candida albicans [7] it was 0.025 µg/mL (≈ 0.0514 µM); in the data set with Candida albicans [8], 8 µg/mL (≈ 16.4 µM); in the data set with Candida albicans [9], 16 µg/mL (≈ 32.9 µM). For the same compound, the MIC80 in the data set on Candida albicans [10] was 0.5 µg/mL (≈ 1.03 µM); in the data set on Nakaseomyces glabratus, 0.01 µg/mL (≈ 0.0206 µM); in the data set with Cryptococcus neoformans, 0.025 µg/mL (≈ 0.0514 µM); with Candida parapsilosis, 0.006 µg/mL (≈ 0.0123 µM).
Turning to `CN(Cc1ccc(C#Cc2ccccc2)cc1)CC(O)(Cn1cncn1)c1ccc(F)cc1F` (stereo unspecified), the MIC80 in the data set with Pichia kudriavzevii stood at 0.05 µg/mL (≈ 0.109 µM); in the data set with Candida albicans [6] it was 0.013 µg/mL (≈ 0.0284 µM); in the data set on Candida tropicalis it was 0.013 µg/mL (≈ 0.0284 µM); with Candida albicans [7], 0.013 µg/mL (≈ 0.0284 µM); in the data set on Nakaseomyces glabratus, 0.1 µg/mL (≈ 0.218 µM); in the data set with Cryptococcus neoformans, 0.025 µg/mL (≈ 0.0545 µM). In addition, in the data set with Candida parapsilosis, the MIC80 was 0.013 µg/mL (≈ 0.0284 µM). The half-life – broadly, the time in which the quantity being followed falls by half – in data set [11] came to 4.39 min. In addition, in data set [12], the remaining at 1 h was 0.936%.
For `C[C@@H](N(C)Cc1ccc(C#Cc2ccc(Br)cc2)cc1)[C@](O)(Cn1cncn1)c1ccc(F)cc1F`, the MIC80 was 16 µg/mL (≈ 29 µM) with Candida albicans [1]; 0.03 µg/mL (≈ 0.0544 µM) in the data set with Pichia kudriavzevii; > 64 µg/mL in the data set on Candida albicans [2]; 8 µg/mL (≈ 14.5 µM) with Candida albicans [3]; 8 µg/mL (≈ 14.5 µM) in the data set with Candida albicans [4]; 0.1 µg/mL (≈ 0.181 µM) in the data set on Aspergillus fumigatus. Also, the MIC80 was determined as 0.25 µg/mL (≈ 0.453 µM) in the data set on Candida albicans [5]; 0.025 µg/mL (≈ 0.0453 µM) in the data set on Candida albicans [6]; 0.006 µg/mL (≈ 0.0109 µM) with Candida tropicalis; 0.025 µg/mL (≈ 0.0453 µM) in the data set with Candida albicans [7]; 8 µg/mL (≈ 14.5 µM) in the data set on Candida albicans [8]; 8 µg/mL (≈ 14.5 µM) in the data set on Candida albicans [9]. The MIC80 stood at 0.5 µg/mL (≈ 0.907 µM) in the data set on Candida albicans [10], 0.05 µg/mL (≈ 0.0907 µM) with Nakaseomyces glabratus, 0.025 µg/mL (≈ 0.0453 µM) in the data set with Cryptococcus neoformans and 0.006 µg/mL (≈ 0.0109 µM) in the data set on Candida parapsilosis.
Consider `CN(Cc1ccc(C#Cc2ccncc2)cc1)CC(O)(Cn1cncn1)c1ccc(F)cc1F` (stereo unspecified), for which the MIC80 came out at 0.2 µg/mL (≈ 0.435 µM) with Pichia kudriavzevii; 0.006 µg/mL (≈ 0.0131 µM) in the data set on Candida albicans [6]; 0.013 µg/mL (≈ 0.0283 µM) in the data set with Candida tropicalis; 0.013 µg/mL (≈ 0.0283 µM) in the data set on Candida albicans [7]; 0.4 µg/mL (≈ 0.871 µM) in the data set with Nakaseomyces glabratus; 0.2 µg/mL (≈ 0.435 µM) in the data set on Cryptococcus neoformans. The MIC80 with Candida parapsilosis stood at 0.013 µg/mL (≈ 0.0283 µM).
For the compound `C[C@@H](N(C)Cc1ccc(C#Cc2ccc(Cl)cc2)cc1)[C@](O)(Cn1cncn1)c1ccc(F)cc1F`, the MIC80 in the data set on Candida albicans [1] turned out to be 16 µg/mL (≈ 31.6 µM); with Pichia kudriavzevii it was 0.01 µg/mL (≈ 0.0197 µM); in the data set on Candida albicans [2] it was 32 µg/mL (≈ 63.1 µM); in the data set with Candida albicans [3] it was 8 µg/mL (≈ 15.8 µM); in the data set with Candida albicans [4], 8 µg/mL (≈ 15.8 µM); with Aspergillus fumigatus, 0.1 µg/mL (≈ 0.197 µM). The MIC80 in the data set on Candida albicans [5] is 0.25 µg/mL (≈ 0.493 µM); in the data set with Candida albicans [6] it was 0.025 µg/mL (≈ 0.0493 µM); with Candida tropicalis, 0.006 µg/mL (≈ 0.0118 µM); in the data set on Candida albicans [7], 0.025 µg/mL (≈ 0.0493 µM); with Candida albicans [8], 8 µg/mL (≈ 15.8 µM); in the data set on Candida albicans [9] it was 16 µg/mL (≈ 31.6 µM). For the same compound, the MIC80 in the data set with Candida albicans [10] came to 0.5 µg/mL (≈ 0.986 µM); in the data set with Nakaseomyces glabratus, 0.03 µg/mL (≈ 0.0592 µM); in the data set with Cryptococcus neoformans it was 0.025 µg/mL (≈ 0.0493 µM); in the data set on Candida parapsilosis, 0.006 µg/mL (≈ 0.0118 µM).
Turning to `C[C@@H](N(C)Cc1ccc(C#Cc2ccc(I)cc2)cc1)[C@](O)(Cn1cncn1)c1ccc(F)cc1F`, the MIC80 is > 64 µg/mL in the data set on Candida albicans [1]; 0.05 µg/mL (≈ 0.0836 µM) in the data set with Pichia kudriavzevii; > 64 µg/mL in the data set on Candida albicans [2]; 16 µg/mL (≈ 26.7 µM) in the data set on Candida albicans [3]; 16 µg/mL (≈ 26.7 µM) in the data set with Candida albicans [4]; 0.2 µg/mL (≈ 0.334 µM) in the data set on Aspergillus fumigatus. Also, the MIC80 with Candida albicans [5] was 16 µg/mL (≈ 26.7 µM); with Candida albicans [6] it was 0.05 µg/mL (≈ 0.0836 µM); in the data set on Candida tropicalis, 0.013 µg/mL (≈ 0.0217 µM); with Candida albicans [7], 0.05 µg/mL (≈ 0.0836 µM); with Candida albicans [8], 32 µg/mL (≈ 53.5 µM); in the data set with Candida albicans [9], 32 µg/mL (≈ 53.5 µM). Also, the MIC80 with Candida albicans [10] turned out to be 16 µg/mL (≈ 26.7 µM); in the data set on Nakaseomyces glabratus, 0.03 µg/mL (≈ 0.0501 µM); in the data set on Cryptococcus neoformans, 0.05 µg/mL (≈ 0.0836 µM); with Candida parapsilosis it was 0.013 µg/mL (≈ 0.0217 µM).
